Key:
[1] = Literature reported data; cited from earlier work
[2] = Dynamic vapor sorption (DVS); assay type: physicochemical; details: 25° C./90% RH

Structure (SMILES) | BBB+ [1] | maximum water uptake (DVS) [2] [% w/w]
N#Cc1ccnc(N2C(=O)CC[C@H]2C(=O)N(c2cncc(F)c2)[C@H](C(=O)NC2CC(F)(F)C2)c2ccccc2Cl)c1 [AG-120] | No | 
C[C@@H](Nc1nc(N[C@H](C)C(F)(F)F)nc(-c2cccc(Cl)n2)n1)C(F)(F)F [AG-881] | Yes | 
C[C@H](Nc1ccc(C#N)n(C)c1=O)c1cc2cc(Cl)ccc2[nH]c1=O [Compound 1 Type A, (S)-5-((1-(6-chloro-2-oxo-1,2-dihydroquinolin-3-yl)ethyl)amino)-1-methyl-6-oxo-1,6-dihydropyridine-2-carbonitrile] |  | 0.25

Source: patent publication US11376246B2, “Inhibiting mutant IDH-1” (FORMA Therapeutics, Inc., priority 2018, dated 2022)
